Data published in a compilation of properties of binary mixtures (doi:10.1016/j.jtice.2024.105468).

Experiment: xn = mol fraction of the nth substance listed
Conditions: 100 kPa

COCCO + CCCC[n+]1ccn(C)c1.[Br-]
viscosity (298.15 K, x2 = 0): 1.57 mPa·s | viscosity (303.15 K, x2 = 0): 1.5 mPa·s | viscosity (308.15 K, x2 = 0): 1.35 mPa·s | viscosity (313.15 K, x2 = 0): 1.23 mPa·s

CCCC[n+]1ccn(C)c1.[Br-] + COCCO
viscosity (298.15 K, x1 = 0.1002): 10 mPa·s | viscosity (298.15 K, x1 = 0.1999): 34 mPa·s | viscosity (298.15 K, x1 = 0.3002): 74.5 mPa·s | viscosity (298.15 K, x1 = 0.4): 124 mPa·s | viscosity (298.15 K, x1 = 0.5): 179 mPa·s | viscosity (298.15 K, x1 = 0.5999): 247 mPa·s | viscosity (298.15 K, x1 = 0.8): 527 mPa·s | viscosity (298.15 K, x1 = 0.8975): 843 mPa·s | viscosity (298.15 K, x1 = 1): 1451 mPa·s | viscosity (303.15 K, x1 = 0.1002): 6.65 mPa·s | viscosity (303.15 K, x1 = 0.1999): 19.6 mPa·s | viscosity (303.15 K, x1 = 0.3002): 41.1 mPa·s | viscosity (303.15 K, x1 = 0.4): 68.9 mPa·s | viscosity (303.15 K, x1 = 0.5999): 139 mPa·s | viscosity (303.15 K, x1 = 0.7002): 192 mPa·s | viscosity (303.15 K, x1 = 0.8): 280 mPa·s | viscosity (303.15 K, x1 = 0.8975): 447 mPa·s | viscosity (303.15 K, x1 = 1): 837 mPa·s | viscosity (308.15 K, x1 = 0.1002): 5.03 mPa·s | viscosity (308.15 K, x1 = 0.1999): 13 mPa·s | viscosity (308.15 K, x1 = 0.3002): 26.9 mPa·s | viscosity (308.15 K, x1 = 0.5): 63.6 mPa·s | viscosity (308.15 K, x1 = 0.5999): 86.3 mPa·s | viscosity (308.15 K, x1 = 0.7002): 114 mPa·s | viscosity (308.15 K, x1 = 0.8): 162 mPa·s | viscosity (308.15 K, x1 = 0.8975): 256 mPa·s | viscosity (308.15 K, x1 = 1): 506 mPa·s | viscosity (313.15 K, x1 = 0.1002): 3.71 mPa·s | viscosity (313.15 K, x1 = 0.1999): 8.79 mPa·s | viscosity (313.15 K, x1 = 0.3002): 17.5 mPa·s | viscosity (313.15 K, x1 = 0.5999): 55.5 mPa·s | viscosity (313.15 K, x1 = 0.8): 106 mPa·s | viscosity (313.15 K, x1 = 0.8975): 167 mPa·s | viscosity (313.15 K, x1 = 1): 330 mPa·s
